Assay results as given in US20040171594A1, “Use of bis-acid(5-androsten-17-one-3beta-hydroxyl)diester for manufacture pharmaceuticals” (priority 2001, published 2004).
Marks after values point to notes of the source that are not given here.

Tests used:
[1] = test system: arrhythmia of rats induced by Aconitine; experiment: Arrhythmia of rats induced by Aconitine; assay type: in vivo, SD rats; conditions: rats, drug 0.5 mg/kg sublingual vein 10 min before Aconitine 2.5 μg/min, n=10
Description: Male SD rats, weighing (218.3±20.0) g, were anaesthetized with urethane 1.2 g/kg body weight by abdominal injection, continuously monitored by II lead electrocardiogram (ECG) by MS302 Biological Signal Record and Analysis System. After ten minutes of being administered drug or 0.5% CMC-Na through sublingual vein, rats were injected with Aconitine in external jugular vein at 2.5 μg/min speed, recorded the dose at appearance time of ventricular premature beat (VP), ventricular tachycardia (VT), ventricular fibrillation (VF) and cardiac arrest (CA), respectively. And t test was performed. […] The effect of compounds Ca Do E at 0.5 mg/kg dose were remarkably better than that of Prasterone and Arniodarone.

[2] = test system: acute renal failure of mice induced by endotoxin; experiment: Acute renal failure model induced by endotoxin; assay type: in vivo, NIH mice; conditions: drug 10 mg/kg i.p., endotoxin 0.06 g/kg, after five hours, n=10; for GSH-Px: mice kidney homogenate; for BUN / Cr: mice serum
Description: After five hours, blood of the mice was collected by removing eyes, assayed Blood Urea Nitrogen (BUN) and Creatinine (Cr) concentration of serum. One kidney of each […] was taken out and made 100 mL/L homogenate, assayed activity of Glutathione Peroxidase (GSH-Px) enzyme.

[3] = test system: cerebral ischemia-reperfusion injury of mice; experiment: Memory step-through test after cerebral ischemia-reperfusion injury; assay type: in vivo, NIH mice; conditions: 4.5 mg/kg intragastric once a day for 10 days, n=10
Description: After weighed, NIH mice were anaesthetized with Penbotarbital 60 mg/kg, then performed operation. Fixed at supine position, the skin in the middle of the deck was dissected about 7 mm. Separated common carotid artery of two sides of neck, surrounded with the thread of No “0”. Common carotid artery of two sides was chipped with artery clip for 2 minutes to induce cerebral ischemia. In the end of ischemia treatment, artery clip was loosed and blood perfusion was restored, rest for five minutes, repeated twice as that. After blocking blood flow of carotid, sutured incision. Recorded trail bloodletting, bloodletting quantity was no more than 10% of total blood quantity. After operation, […] were administered with proper physiological saline through intraperitoneal injection in order to supple capacity of blood. After pseudo operation group was anaesthetized, carotid of two sides was separated but blood flow was not blocked, without being bloodletting too.
In experiment appearance of body temperature lowering and righting reflex disappearing was as positive guide-line of ischemia, discarding those without typical guide line of ischemia. In the procedure of ischemia or after operation, some of animals would be dead. […] According to the dose of Table 7, animals were administered with medicine by intragastric intubation once a day, and continue administered drug for 10 days. After 10 days, memory test was performed.

[4] = test system: osteoporosis model of rats induced by Retinoic acid; experiment: Osteoporosis model of rats induced by Retinoic acid; assay type: in vivo, SD rats; conditions: Retinoic acid 70 mg/kg, specimen orally 30 days (dose not given), right thighbone, n=8
Text: After continuously administering specimen for 30 days, killed rats and took right thighbone of rat.
Took same part tissue of right thighbone, routinely decalcified, enveloped with olefin, and dyed with HE. Observed with ordinary optics microscope, import all imagines into computer with A/D conversion of pickup camera, via dealing with image analysis software obtained index of guide line as follows: relative bone volume, indicating percentage that bone trabecula accounted for medullary cavity, 1.25×10×4 times; average width of bone trabecula, 1.25×10×10 times; amount of cell per area in bone trabecula, gathering same area image (640×480) of bone trabecula with image analysis software, calculating amount of bone cell in corresponding area, 1.25×10×40 times; Average length of bone cell lacuna, 1.25×10×40; Average width of bone cell lacuna, 1.25×10×40. The above five indexes of static state guide-line were all observed for ten eyeshots, calculating their average value.

[5] = test system: thymus and spleen of mice; experiment: Indexes of thymus and spleen of mice injected with cyclophosphamide; assay type: in vivo, NIH mice; conditions: cyclophosphamide 60 mg/kg i.p., drug 10 mg/kg intragastric for 30 days, n=10
Description: Chose 90 healthy NIH mice, weighing (18˜22)g, equal amount of male and female. Every mouse was injected with cyclophos phamide (60 mg/kg, intraperitoneally). […] Administered specimen through intragastric intubation in terms of the dose in Table 8. Continuously administered orally specimen for 30 days, all mice fasted on the 30th day, but were supplied with water. On the 31th day, mice of every group were killed. Weighed their body, thymus and spleen, calculated index of thymus and spleen, compared the difference among each group.

[6] = test system: myocardium injury model of rats induced by ISO; experiment: Myocardium injury (myocardial ischemia) model of rats induced by ISO; assay type: in vivo, SD rats; conditions: drug 0.76 mg/kg, n=8; for Σ ST: rats, ISO s.c.
Description: SD rats were measured ECG by chest leads before experiment, abandoned those of abnormal or arrhythmia at T wave, ST sect. […] They were divided into four groups according to Table 4, eight rats in each group. As dose of Table 4, tested compounds or 0.5% CMC-Na solution with same volume were administered through duodenum for 30 minutes, rats were anaesthetized with aether. After ECG was recorded, Isoproterenol (ISO) was administered by subcutaneous injection from the back, recorded ECG again after 30 minutes. After specimen was intragastricly granted for 24 hours and 48 hours, every group was administered simples again and recorded ECG again in terms of the methods stated above. After 72 hours, bleeding from the ophthalmic venous plexus and separated blood serum through centrifugation. Killed the rats, scissor the tip of the heart to prepare 10% myocardial tissue homogenate with 4° C. physiological saline as standby.
Measured each rat's value of ST before first administering ISO. And after first, second and third subcutaneous injection for 30 minutes, calculated mv mean value of ΣST as guide line of myocardium injury and performed t test.
The changes of MDA LDH and CK in serum were measured with agent kits.
The changes of MDA, LDH and CK in serum and myocardial tissue homogenate were measured with agent kits.

[7] = test system: arrhythmia of guinea pigs induced by Ouabain; experiment: Arrhythmia of guinea pigs induced by Ouabain; assay type: in vivo; conditions: drug 1.5 mg/kg 10 min before Ouabain 3 μg/min, n=8
Description: Chose 40 male guinea pigs, weighing (288.8±38.3) g, randomly divided into six groups, anaesthetized with urethane 1.2 g/kg by abdominal injection. Ten minutes after administered drug or 0.5% CMC-Na, the guinea pigs were injected Ouabain into external jugular vein at 3 μg/min speed, recorded ECG respectively, measured the dose at appearance time of VP, VT, VF and CA, and performed t test.

[8] = myocardial tissue homogenate of rats with ISO myocardium injury
[9] = serum of rats with ISO myocardium injury, after 72 hours

Compound | GSH-Px [2] [nU · L^−1] | BUN [2] | Cr [2] | Latency of dark cabin, Memory [3] [s] | Latency of dark cabin, Study [3] [s] | Number of error [3] [n] | Amount of cell per area in bone trabecula [4] | Average width of bone trabecula [4] [μm] | Relative bone volume [4] [%] | Index of spleen [5] [mg/10 g body weight] | Index of thymus [5] [mg/10 g body weight] | Activity of CK [6, 8] [U/L] | Activity of LDH [6, 8] [U/L] | MDA [6, 8] [nmol/g] | Σ ST ([6]; 30 min) [mv] | Σ ST ([6]; 24 h) [mv] | Σ ST ([6]; 48 h) [mv] | Σ ST ([6]; 72 h) [mv] | Activity of CK [6, 9] [U/L] | Activity of LDH [6, 9] [U/L] | other results
C[C@]12CC[C@H](OC(=O)CCCC(=O)O[C@H]3CC[C@@]4(C)C(=CC[C@@H]5[C@@H]4CC[C@]4(C)C(=O)CC[C@@H]54)C3)CC1=CC[C@@H]1[C@@H]2CC[C@]2(C)C(=O)CC[C@@H]12 [Compound E, glutaric acid-(5-androsten-17-one-3β-ol)-diester] | 32.0 ± 14.4 | 315.9 ± 40.8*** 10 mg · L^−1 | 32.86 ± 8.07*** 10 mg · L^−1 | 45.8 ± 12.9 | 24.1 ± 16.0 | 3.1 ± 2.7 | 19.35 ± 3.13 | 68.66 ± 9.80 | 35.87 ± 3.12 | 68.20 ± 9.82 | 20.22 ± 2.75 | 206.18 ± 43.80 | 160.27 ± 20.36 | 89.62 ± 12.37 | 0.53 ± 0.11 | 0.50 ± 0.10 | 0.57 ± 0.04 | 0.51 ± 0.07 | 275.44 ± 21.81 | 267.35 ± 38.42 | Dose of Aconitine required to induce CA [1]: 0.1845 ± 0.0271 mg/kg; Dose of Aconitine required to induce VF [1]: 0.1634 ± 0.0305 mg/kg; Dose of Aconitine required to induce VP [1]: 0.1082 ± 0.0374 mg/kg; Dose of Aconitine required to induce VT [1]: 0.1224 ± 0.0378 mg/kg; MDA [6, 9]: 25.54 ± 3.80 nmol/mL
C[C@]12CC[C@H](OC(=O)CCCCC(=O)O[C@H]3CC[C@@]4(C)C(=CC[C@@H]5[C@@H]4CC[C@]4(C)C(=O)CC[C@@H]54)C3)CC1=CC[C@@H]1[C@@H]2CC[C@]2(C)C(=O)CC[C@@H]12 [Compound F, adipic acid-(5-androsten-17-one-3β-ol)-diester] | 35.2 ± 12.8 | 377.1 ± 38.1*** 10 mg · L^−1 | 38.31 ± 9.69*** 10 mg · L^−1 | 46.5 ± 13.8 | 28.7 ± 11.8 | 2.9 ± 1.1 | 26.31 ± 3.16 | 74.67 ± 3.56 | 37.14 ± 3.46 | 75.24 ± 15.48 | 16.24 ± 3.31 | 221.58 ± 45.58 | 157.39 ± 20.69 | 105.02 ± 10.84 | 0.47 ± 0.10 | 0.57 ± 0.15 | 0.61 ± 0.05 | 0.53 ± 0.08 | 252.17 ± 18.41 | 250.40 ± 31.30 | Dose of Oua at appearance of CA [7]: 0.212 ± 0.0406 mg/kg; Dose of Oua at appearance of VF [7]: 0.1762 ± 0.0481 mg/kg; Dose of Oua at appearance of VP [7]: 0.0874 ± 0.0213 mg/kg; Dose of Oua at appearance of VT [7]: 0.1394 ± 0.0354 mg/kg; MDA [6, 9]: 24.16 ± 4.18 nmol/mL
glycol-disulphonic acid-(5-androsten-17-one-3β-ol)-diester [Compound G] | 31.8 ± 12.3 | 412.2 ± 40.5*** 10 mg · L^−1 | 40.42 ± 10.94*** 10 mg · L^−1 | 47.5 ± 15.7 | 29.5 ± 17.5 | 3.4 ± 1.6 | 25.84 ± 3.31 | 69.67 ± 3.15 | 34.37 ± 3.27 | 80.22 ± 17.33 | 18.39 ± 3.24 | 225.60 ± 31.81 | 152.22 ± 25.42 | 99.52 ± 13.15 | 0.51 ± 0.13 | 0.50 ± 0.14 | 0.67 ± 0.19 | 0.42 ± 0.07 | 248.20 ± 20.50 | 254.75 ± 30.81 | Dose of Oua at appearance of CA [7]: 0.228 ± 0.0398 mg/kg; Dose of Oua at appearance of VF [7]: 0.1887 ± 0.0378 mg/kg; Dose of Oua at appearance of VP [7]: 0.1109 ± 0.0203 mg/kg; Dose of Oua at appearance of VT [7]: 0.1443 ± 0.0338 mg/kg; MDA [6, 9]: 20.54 ± 2.11 nmol/mL
